Data published in article PMC10096180, “Half-Sandwich Type Platinum-Group Metal Complexes of C-Glucosaminyl Azines: Synthesis and Antineoplastic and Antimicrobial Activities” (Molecules, 2023).
Where two headings read alike, the source gives them in different places.

Experiments:
A2780 cells [1] = test: MTT reduction assay, early toxicity, 4 h treatment; format: cell-based
Procedure: (§1) The complexes described above are intended to replace registered platinum complexes. Platinum complexes constitute the core of the chemotherapy regimen used in ovarian cancer; therefore, we used a cellular model of ovarian cancer, A2780, and primary human dermal fibroblasts as models of non-transformed cells (controls). For the characterization of the complexes, we used an MTT assay after 4 h of treatment for the detection of early toxicity and an SRB assay 48 h after treatment for the detection of cytostasis.
(§2) An MTT reduction assay was measures the activity of mitochondrial complex I and can be used to detect toxicity. The assay was performed in a manner similar to that described in [84]. Briefly, cells were plated in 96-well plates the day before the assay. Cells were treated with the compounds for 4 h; then, MTT was added to a 0.5 mg/mL final concentration, and cells were incubated at 37 °C in a cell incubator for 40–60 min as a function of the cell line being assessed. Culture medium was removed, the reduced MTT dye was dissolved in dimethyl-sulfoxide, and plates were measured in a plate photometer (Thermo Scientific Multiscan GO spectrophotometer, Waltham, MA, USA) at 540 nm. On each plate, wells were designed to contain vehicle-treated cells. In calculations, the readings for these wells were considered to 1, and all readings were expressed relative to these values.
(§3) Statistical analysis was performed using version 8.0.1 of GraphPad Prism. Values were tested for normal distribution using the Shapiro–Wilk normality test. Nonlinear regression was performed using the built-in “[Inhibitor] vs. response—Variable slope (four parameters), least square fit” utility of GraphPad, which yielded IC50 and Hill slope values if the sigmoid curves reached a plateau of inhibition and there was no decrease between two subsequent data points or when inhibition was over 90%. In other cases, the percentage of inhibition was taken for the maximum concentration (100 μM).

[2] = tested on: primary human dermal fibroblasts; test: MTT reduction assay, early toxicity, 4 h treatment; format: cell-based; conditions: up to 100 μM
Procedure: as §1, §2, §3

A2780 cells [3] = test: SRB binding assay, cytostasis, 48 h treatment; format: cell-based; conditions: for A2780 SRB Max Inhibition: up to 100 μM, ND = not detectable
Procedure: as §1
(§4) An SRB assay measures protein content of cells in correlation with the cell number in an assay well and can therefore be used to assess cell proliferation or long-term cytostasis. Cells were seeded in 96-well plates the day before the assay. Cells were treated with the compounds for 48 h. Then medium was removed, and cells were fixed with 10% trichloroacetic acid. Fixed cells were washed in distilled water 3 times, followed by staining with SRB (0.4 m/V% dissolved in 1% acetic acid) for 10 min. Stained cells were washed in 1% acetic acid 5 times; acetic acid was removed, and cells were left to dry. Protein-bound SRB was released by adding 100 μL 10 mM Tris base. Plates were measured in a plate photometer (Thermo Scientific Multiscan GO spectrophotometer, Waltham, MA, USA) at 540 nm. On each plate, wells were designed to contain vehicle-treated cells. In calculations, the readings for these wells were considered to be 1, and all readings were expressed relative to these values.
as §3

[4] = Distribution coefficient (logD), n-octanol-PBS; format: physicochemical; conditions: n-octanol-PBS (pH = 7.4) system
Procedure: The logD values of the newly synthesized complexes were determined according to a procedure described in our previous publications. page 64: Ir-7b +1.17 Rh-7b +1.41 Ru-7c +1.31 Os-7c +1.59 Ir-7c +1.40 Rh-7c +1.13 Ru-7d +1.26 Os-7d +1.42 Ir-7d +1.30 Rh-7d +1.04 Ru-7e +2.22 Os-7e +2.21 Ir-7e +1.39 Rh-7e +1.66 *logD was determined in an n-octanol-PBS (pH = 7.4) system 64 (14 pictures or pasted objects on this page, not shown here)

[5] = tested on: Enterococcus faecalis (ATCC29212); test: Broth microdilution MIC, reference strain; format: cell-based; conditions: 24 h, tested range 0.08–40 μM, read-out: MIC E. faecalis ATCC 29,212
Procedure: (§5) The reference strains of Staphylococcus aureus (ATCC29213) and Enterococcus faecalis (ATCC29212) were purchased from the ATCC (Manassas, VA, USA).
(§6) Microdilution experiments were performed according to the standards of EUCAST [85]. The bacterial isolates to be tested were grown on Mueller–Hinton agar plates. The inoculum density of bacteria was set at 5.0 × 10^5 CFU/mL in microtiter plates in a final volume of 200 μL Mueller–Hinton broth. The tested concentration range was 0.08–40 μM (10 concentrations, twofold serial dilutions), and a drug-free growth control and an inoculum-free negative control were included. The inoculated plates were incubated for 24 h at 37 °C, then visually assessed. Minimum inhibitory concentration (MIC) was defined as the lowest concentration with a 50%≤ inhibitory effect compared to the growth control. All experiments were performed at least twice in duplicate.

[6] = tested on: Staphylococcus aureus (ATCC29213); test: Broth microdilution MIC, reference strain; format: cell-based; conditions: 0.08–40 μM, read-out: MIC S. aureus ATCC 29213
Procedure: as §5, §6

[7] = tested on: vancomycin-resistant Enterococcus (VRE) clinical isolates; test: Broth microdilution MIC, clinical VRE isolates; format: cell-based, E. faecium; conditions: 24 h, 0.08–40 μM
Procedure: (§7) We used a set of clinical isolates of S. aureus and E. faecium that were collected at the Medical Center of the University of Debrecen (Hungary) between 1 January 2018. and 31 December 2020. The clinical isolates were identified using a Microflex MALDI-TOF mass spectrometer (Bruker, Billerica, MA, USA). The antibiotic susceptibility of the isolates was tested following the European Committee on Antimicrobial Susceptibility Testing (EUCAST) guidelines, which were valid at the time of collection.
as §6

[8] = tested on: methicillin-resistant Staphylococcus aureus (MRSA) clinical isolates; test: Broth microdilution MIC, clinical MRSA isolates; format: cell-based; conditions: 24 h, 0.08–40 μM
Procedure: as §7, §6

[9] = tested on: primary human dermal fibroblasts; test: SRB binding assay, cytostasis, 48 h treatment; format: cell-based; conditions: for Fibroblast SRB Max Inhibition: up to 100 μM, ND = not detectable
Procedure: as §1, §4, §3

[10] = inhibition at maximum concentration (100 μM) where no plateau, ND = not detectable
[11] = clinical isolate 25,051 VRE, read-out: MIC 25,051 VRE
[12] = clinical isolate 25,498 VRE, read-out: MIC 25,498 VRE
[13] = clinical isolate 27,085 VRE, read-out: MIC 27,085 VRE
[14] = clinical isolate 20,426 MRSA, read-out: MIC 20,426 MRSA
[15] = clinical isolate 24,035 MRSA, read-out: MIC 24,035 MRSA
[16] = clinical isolate 24,268 MRSA, read-out: MIC 24,268 MRSA
[17] = clinical isolate 24,272 MRSA, read-out: MIC 24,272 MRSA
[18] = clinical isolate 24,328 MRSA, read-out: MIC 24,328 MRSA
[19] = clinical isolate 24,408 MRSA, read-out: MIC 24,408 MRSA

| IC50 (A2780 cells [3]) | logD [4] | MIC [5] | MIC ([6]; 24 h) | MIC [7, 11] | MIC [7, 12] | MIC [7, 13] | MIC [8, 14] | MIC [8, 15] | MIC [8, 16] | MIC [8, 17] | MIC [8, 18] | MIC [8, 19] | Compound | A2780 MTT Max Inhibition (A2780 cells [1]; [10]) | Fibroblast MTT Max Inhibition [2] | A2780 SRB Max Inhibition (A2780 cells [3]) | Fibroblast SRB Max Inhibition [9] | IC50 (A2780 cells [1]) | further results |
| --- | --- | --- | --- | --- | --- | --- | --- | --- | --- | --- | --- | --- | --- | --- | --- | --- | --- | --- | --- |
| 17.8 µM | 1.39 | 10 µM | 20 µM | 10 µM | 10 µM | 10 µM | 10 µM | 10 µM | 10 µM | 20 µM | 20 µM | 10 µM | Cc1ccc(C(C)C)cc1.F[P-](F)(F)(F)(F)F.NC1C(c2cccnn2)OC(COC(=O)c2ccccc2)C(OC(=O)c2ccccc2)C1OC(=O)c1ccccc1.[Cl][Ru+] (mixture of isomers) [Ru-7b] | 68.22% | 47.04% | >90% |  |  |  |
| 6.2 µM | 1.08 | 40 µM | 20 µM | 40 µM | 40 µM | 40 µM | 10 µM | 10 µM | 10 µM | 10 µM | 20 µM | 10 µM | Cc1c(C)c(C)[c-](C)c1C.F[P-](F)(F)(F)(F)F.N[C@@H]1[C@@H](OC(=O)c2ccccc2)[C@H](OC(=O)c2ccccc2)[C@@H](COC(=O)c2ccccc2)O[C@H]1c1ccccn1.[Cl][Ir+2] [Ir-7a] | >90% | 65.18% | >90% | 56.31% | 11.6 µM |  |

More lines, now with the values behind:

| Compound | IC50 (A2780 cells [3]) | logD [4] | MIC [5] | MIC ([6]; 24 h) | MIC [7, 11] | MIC [7, 12] | MIC [7, 13] | MIC [8, 14] | MIC [8, 15] | MIC [8, 16] | MIC [8, 17] | MIC [8, 18] | MIC [8, 19] | A2780 MTT Max Inhibition (A2780 cells [1]; [10]) | Fibroblast MTT Max Inhibition [2] | A2780 SRB Max Inhibition (A2780 cells [3]) | Fibroblast SRB Max Inhibition [9] | IC50 (A2780 cells [1]) | further results |
| --- | --- | --- | --- | --- | --- | --- | --- | --- | --- | --- | --- | --- | --- | --- | --- | --- | --- | --- | --- |
| N[C@@H]1[C@@H](OC(=O)c2ccccc2)[C@H](OC(=O)c2ccccc2)[C@@H](COC(=O)c2ccccc2)O[C@H]1c1ccccn1 [Complex 7a, 2-(2′-Amino-2′-deoxy-3′,4′,6′-tri-O-benzoyl-β-D-glucopyranosyl)pyridine] |  |  |  |  |  |  |  |  |  |  |  |  |  |  | 27.02% | 76.24% | 26.00% |  | inhibition at 100 µM (A2780 cells [1]; Homo sapiens, inhibition at maximum concentration (100 μM) where no plateau, ND = not detectable, read-out: A2780 MTT Max Inhibition): 18.6%; MIC ([5]; Enterococcus faecalis): > 40 µM; MIC ([6]; Staphylococcus aureus, ATCC29213, 24 h): > 40 µM; MIC ([7]; Enterococcus, clinical isolate 25,051 VRE, read-out: MIC 25,051 VRE): > 40 µM; MIC ([7]; Enterococcus, clinical isolate 25,498 VRE, read-out: MIC 25,498 VRE): > 40 µM; MIC ([7]; Enterococcus, clinical isolate 27,085 VRE, read-out: MIC 27,085 VRE): > 40 µM; MIC ([8]; Staphylococcus aureus, clinical isolate 20,426 MRSA, read-out: MIC 20,426 MRSA): > 40 µM; MIC ([8]; Staphylococcus aureus, clinical isolate 24,035 MRSA, read-out: MIC 24,035 MRSA): > 40 µM; MIC ([8]; Staphylococcus aureus, clinical isolate 24,268 MRSA, read-out: MIC 24,268 MRSA): > 40 µM; MIC ([8]; Staphylococcus aureus, clinical isolate 24,272 MRSA, read-out: MIC 24,272 MRSA): > 40 µM; MIC ([8]; Staphylococcus aureus, clinical isolate 24,328 MRSA, read-out: MIC 24,328 MRSA): > 40 µM; MIC ([8]; Staphylococcus aureus, clinical isolate 24,408 MRSA, read-out: MIC 24,408 MRSA): > 40 µM |
| Cc1c(C)c(C)[c-](C)c1C.F[P-](F)(F)(F)(F)F.N[C@@H]1[C@@H](OCc2ccccc2)[C@H](OCc2ccccc2)[C@@H](COCc2ccccc2)O[C@H]1c1ccccn1.[Cl][Ir+2] [Ir-3a] | 1.69 µM | 3.18 | 20 µM | 20 µM | 10 µM | 10 µM | 10 µM | 10 µM | 20 µM | 5 µM | 10 µM | 10 µM | 10 µM | 82.71% |  | >90% |  |  | IC50 ([9]; read-out: Fibroblast SRB IC50): 14.1 µM |
| Cc1ccc(C(C)C)cc1.F[P-](F)(F)(F)(F)F.N[C@@H]1[C@@H](OCc2ccccc2)[C@H](OCc2ccccc2)[C@@H](COCc2ccccc2)O[C@H]1c1cnccn1.[Cl][Os+] [Os-3d] | 6.83 µM | 2.64 | >40 µM | 40 µM | 40 µM | 40 µM | 40 µM | 40 µM | 40 µM | 40 µM | 40 µM | 40 µM | 40 µM | 86.83% | 73.24% | >90% |  | 32.3 µM |  |
| Cc1ccc(C(C)C)cc1.F[P-](F)(F)(F)(F)F.N[C@@H]1[C@@H](OCc2ccccc2)[C@H](OCc2ccccc2)[C@@H](COCc2ccccc2)O[C@H]1c1cnccn1.[Cl][Ru+] [Ru-3d] | 3.77 µM | 2.06 | 20 µM | 20 µM | 20 µM | 20 µM | 20 µM | 20 µM | 20 µM | 20 µM | 20 µM | 20 µM | 20 µM | >90% | 80.31% | >90% |  | 19.3 µM |  |
